Reference: patent publication US20130045991A1, “NEUROPROTECTIVE MODULATION OF NMDA RECEPTOR SUBTYPE ACTIVITIES” (THE UNIVERSITY OF BRITISH COLUMBIA, priority 2005, published 2013)

Assays:
cortical cultures = assay: Oxygen and glucose deprivation (OGD), in vitro stroke model; format: cell-based, rat; settings: 1 h OGD; NVP-AAM077 0.4 μM or Ro 25-6981 0.5 μM; apoptosis 20 h after OGD
From the text: Taking advantage of the finding of the opposing roles of NR2A- and NR2B-containing NMDA receptors in mediating cell survival and death, one aspect of the invention involves modulating the activity of the two subpopulations of receptors to ameliorate neuronal injury following acute brain insults, such as stroke and brain trauma. To illustrate this aspect of the invention, we employed a well-characterized in vitro stroke model, oxygen and glucose deprivation (OGD) (Goldberg et al., 1993; Aarts et al., 2002). Cortical cultures of 11-14 DIV were exposed to an anaerobic atmosphere for 1 h in a glucose-free solution in the absence or the presence of either NVP-AAM077 (0.4 μM) or Ro 25-6981 (0.5 μM). Neuronal apoptosis was quantitatively determined 20 h after OGD.
To visualize injured neurons, Hoechst-33342 (10 μg/ml) was added to the culture medium 20 h after treatments and incubated for 45 min at 37 °C. Images were taken with a Leica DMIRE2 fluorescence microscope. Quantitative assessment of neuronal apoptosis was performed 20 h following treatments using a Cell Death Detection ELISAPLUS Kit (Roche Applied Science). Absorbance readings were determined using a spectrophotometric microplate reader. Data analyses were carried out according to the manufacturer's instructions. Data are expressed as the difference in apoptosis relative to control and are expressed as a percentage. […]

cortical neurons = assay: Neuronal apoptosis with bicuculline-enhanced activation of synaptic NMDA receptors; format: cell-based, rat; settings: bicuculline 50 μM, 4 h; for neuronal apoptosis on co-application with bicuculline: apoptosis quantified 20 h after
Procedure: The function of the NR2A and NR2B synaptic receptor subpopulations in mediating neuronal survival or death is also illustrated herein, as follows. To increase activation of synaptic NMDA receptors by synaptically released glutamate, neurons were incubated with the GABAA receptor antagonist bicuculline (50 μM, 4 h). Bicuculline increases neuronal excitation by blocking the GABAA receptor-mediated synaptic inhibition and thereby enhances action potential-dependent synchronized release of glutamate from presynaptic terminals. Neuronal apoptosis was quantified 20 h following the treatments. […] The NR2A blockade-induced neuronal apoptosis was demonstrably mediated by synaptic NR2B-containing receptors, as it was prevented in the presence of Ro 25-6981 (p<0.01; FIG. 3B).
Dissociated cultures of cortical neurons were prepared from 18-day Sprague-Dawley rat embryos as described previously (Mielke et al., 2005). To obtain mixed cortical cultures enriched with neurons, uridine (10 μM) and 5-Fluor-2′-deoxyuridine (10 μM) were added to the culture medium at 3 DIV and maintained for 48 h, to inhibit non-neuronal cell proliferation, before the cultures were shifted back to the normal culture medium. Mature neurons (11-14 DIV) were used for experiments. To induce neuronal apoptosis, cortical cultures were stimulated with NMDA (50 μM) and glycine (10 μM) for 20 min, or STS (100 nM) for 1 h in Mg2+-free extracellular solution (ECS) containing (mM): 25 HEPES acid, 140 NaCl, 33 glucose, 5.4 KCl and 1.3 CaCl2, with pH 7.35 and osmolarity 320-330 mOsm. […]
To visualize injured neurons, Hoechst-33342 (10 μg/ml) was added to the culture medium 20 h after treatments and incubated for 45 min at 37 °C. Images were taken with a Leica DMIRE2 fluorescence microscope. Quantitative assessment of neuronal apoptosis was performed 20 h following treatments using a Cell Death Detection ELISAPLUS Kit (Roche Applied Science). Absorbance readings were determined using a spectrophotometric microplate reader. […] Data are expressed as the difference in apoptosis relative to control and are expressed as a percentage.

[1] = test system: middle cerebral artery occlusion (MCAo); assay: MCAo focal ischemic stroke model, pretreatment; format: in vivo, rat; settings: for neurological function (behavioral tests) / infarct area: i.v. 30 min before 1-h MCAo; for neurological function (behavioral tests): 24 h after onset; for infarct area: NVP-AAM077 2.4 mg/kg, Ro 25-6981 6 mg/kg, 24 h
Procedure: This aspect of the invention was also illustrated in vivo using a rat focal ischemic stroke model—middle cerebral artery occlusion (MCAo) (Aarts et al., 2002; Bederson et al., 1986). We first infused NVP-AAM077 (2.4 mg/kg), Ro 25-6981 (6 mg/kg (Loschmann et. al., 2004)) or vehicle (saline) intravenously in the rats 30 min prior to stroke onset. The animals were then subjected to a 1-h transient ischemic stroke induced by MCAo. This relatively short duration of ischemia was chosen to unmask the potential neuroprotective effects mediated by NR2A-containing receptors activated during the stroke challenge. Neurological score and cerebral infarction were examined 24 h after the MCAo onset. […] Together, these observations indicate that both NR2A- and NR2B-containing NMDA receptor subtypes are activated during stroke, exerting opposing effects on ischemic brain damage.
Transient cerebral focal ischemia was produced by middle cerebral artery occlusion (MCAo) as described (Aarts et al., 2002; Bederson et al., 1986; Longa et al., 1989). Briefly, male Sprague-Dawley rats (Charles River Laboratories) weighing ˜300 g were anesthetized and MCAo was achieved by introducing a 3-0 monofilament suture into the MCA via the internal carotid artery. Body temperature was maintained at 37.0±0.5° C., and blood pressure and blood gases were monitored during the experiments. Animals were sacrificed 24 h following MCAo onset. Cerebral infarction was analyzed using brain sections stained with hematoxylin and eosin (H & E) or 2,3,5-triphenyltetrazolium chloride (TTC). 10 min before the animals were sacrificed, two tests, the postural reflex test to examine upper body posture (Bederson et al., 1986) and the forelimb placing test to examine sensorimotor integration in forelimb placing responses to visual, tactile, and proprioceptive stimuli (De Ryck et al., 1989), were performed to grade neurological function on a scale of 0 to 12 (0=normal, 12=worst). In the pretreatment study, a single bolus of drugs (NR2A-specific antagonist NVP-AAM077 (2.4 mg/kg) or NR2B specific antagonist Ro 25-6981 (6 mg/kg) or vehicle (saline)) was infused intravenously 30 min before a 1-h MCAo. For post-treatment experiments, animals were subjected to a 1.5-h MCAo and drug treatments (glycine, 800 mg/kg; NVP-AAM077 and Ro 25-6981 at the same doses as in the pretreatment study) were then given via intraperitoneal injection (i.p.) 3 h after reperfusion (4.5 h after the onset of MCAo).

Row | Compound | effect on OGD-induced neuronal apoptosis (cortical cultures) | effect on NR2A blockade (NVP-AAM077 + bicuculline)-induced neuronal apoptosis (cortical neurons; plus NVP-AAM077) | neuronal apoptosis on co-application with bicuculline (cortical neurons) | decrease of total infarct volume compared with saline-treated animals ([1]; 6 mg/kg i.v. 30 min before 1-h MCAo, 24 h after MCAo onset) | neurological function (behavioral tests) [1] | infarct area [1] | increase in total infarct volume compared with saline-treated animals ([1]; 2.4 mg/kg i.v. 30 min before 1-h MCAo, 24 h after MCAo onset)
1 | C[C@@H](CN1CCC(Cc2ccccc2)CC1)[C@@H](O)c1ccc(O)cc1 (relative stereo) [Ro 25-6981, [R-(R*,S*)]-α-(4-Hydroxyphenyl)-β-methyl-4-(phenylmethyl)-1-piperidinepropanol] | drastically reduced | prevented | did not cause apoptotic cell death | 67.8±4.3% | significant protective effect | decreased | –
2 | C[C@H](NC(c1cccc2[nH]c(=O)c(=O)[nH]c12)P(=O)(O)O)c1ccc(Br)cc1 (some centres unmarked) [NVP-AAM077] | significantly enhanced OGD-induced neuronal apoptosis | – | significantly increased neuronal apoptosis | – | trend toward poorer neurological function | increased | 67.0±17.9%
